In test [1] the test system is CD274 mRNA. Nature of the test: RT-PCR for CD274 mRNA in ALK+ TCL cells. The class given is cell-based, human. To be noted: SUDHL-1 cells; rapamycin 300 nM, wortmannin 20 nM, U0126 15 μM, Jak3 inhibitor 1 μM. The procedure:
Total RNA was isolated using RNeasy Mini kit (Qiagen), treated with DNase I (Invitrogen), and reverse-transcribed by using Thermoscript RT-PCR system (Invitrogen) with random hexamers as cDNA synthesis primers. The following primer pairs were used for the cDNA amplification: β-actin, 5'[…] ID NO: 1) and 5'[…] ID NO: 2); CD274, 5'[…] ID NO: 3) and 5'[…] ID NO: 4). PCR was performed by using Platium […] polymerase (Invitrogen) for 21 cycles comprised of the denaturation step for 20 seconds at 94° C., annealing for 30 seconds at 58° C. and elongation for 30 seconds at 72° C. The PCR products were visualized by ethium bromide staining in 1.5% agarose gel. […] Inhibitors of: […] Marzec et al., 2007, Oncogene 26: 813-821; Marzec et al., 2007, Oncogene 26: 5606-5614; Marzec et al., 2008, Cancer Res 68: 1083-1091). A mixture of four STAT3 or STAT5b specific siRNA or non-targeting siRNA (all purchased from Dharmacon) was introduced into cells at 100 nM by lipofection with the hew generation Lipofectamine (DMRIE-C; Invitrogen). The procedure was repeated after 24 hours and the cells were cultured for an additional 24 hours. The cells were harvested at one time point 48 hours after first transfection. Extend of the protein knock-down was examined by Flow Cytometry and RT-PCR.

Test [2] concerns CD274 protein. Nature of the test: Flow cytometry for cell-surface CD274 protein in ALK+ TCL cells. The class given is cell-based, human. To be noted: SUDHL-1 cells; rapamycin 300 nM, wortmannin 20 nM, U0126 15 μM, Jak3 inhibitor 1 μM. The procedure: All antibodies were purchased from BD Pharmingen. The stained cells were applied to the flow cytometer (FACSCalibur; Becton Dickinson), and 20,000 events were analyzed. Results of the cell staining are presented as histograms with cell number on the vertical axis and relative fluorescence on the logarithmic horizontal axis. […] Inhibitors of: […] Marzec et al., 2007, Oncogene 26: 813-821; Marzec et al., 2007, Oncogene 26: 5606-5614; Marzec et al., 2008, Cancer Res 68: 1083-1091). A mixture of four STAT3 or STAT5b specific siRNA or non-targeting siRNA (all purchased from Dharmacon) was introduced into cells at 100 nM by lipofection with the hew generation Lipofectamine (DMRIE-C; Invitrogen). The procedure was repeated after 24 hours and the cells were cultured for an additional 24 hours. The cells were harvested at one time point 48 hours after first transfection. Extend of the protein knock-down was examined by Flow Cytometry and RT-PCR.

With `N#CC(=C(/N)Sc1ccccc1N)/C(C#N)=C(\N)Sc1ccccc1N` [U0126], the “CD274 expression on the mRNA level (RT-PCR)” value in test [1] is “no detectable impact”. In addition, the “CD274 expression on the protein level (flow cytometry)” value in test [2] is “no detectable impact”.

(Values after patent US20120201824A1, “Compositions and Methods for Inhibiting an Oncogenic Protein to Enhance Immunogenicity” (priority 2008, published 2012).)
